Laboratory results published in patent US8813566B2, “Instrumentation and analytical techniques suitable for broadband acoustic resonance dissolution spectroscopy” (University College Cork—National University of Ireland, priority 2008, dated 2014).

Assay: Broadband acoustic resonance dissolution spectroscopy (BARDS) dissolution profile in distilled water
Format: physicochemical
Conditions: 0.4M in 100 ml of double distilled water
Description: The inside of the glass was cleaned with distilled water whilst ensuring the outside of the glass is dry with particular care taken to prevent moisture from affecting the microphone. The microphone is placed on the outside of the glass, 5 cm above the 100 ml volume of water and 1.8 cm from the top of the glass. Securing the microphone above the volume line delivers a better spectrum and the distances aid in reproducibility. The microphone and the wire connection to the glass are secured with adhesive tape. 100 mls of distilled water is accurately poured into the glass and set stirring using a magnetic stirrer. The stirring solution is recorded for 30 seconds prior to addition of the analyte compound to record the resonant frequencies of the vessel (spectrum background). The concentration of the analyte compound is 1.37 M where saturation levels allow. The analyte compound is added carefully all at once from a weighing boat to the stirring solution, with care taken to ensure no sample is lost to the glass sides. The sample spectrum is recorded for a total of 800 seconds. Raw data was saved in .wav format files. From these files the spectrum can be replayed acoustically with any media program. This allows data points to be selected using the mouse cursor and saved in a text format file for transplantation into a data manipulation program such as Excel™ or Sigmaplot™. […]

SMILES: O=S(=O)([O-])[O-].[Cu+2] [anhydrous form, Anhydrous copper sulphate]
- time required for complete dissolution: 75 s
